Key:
rats = settings: cited from earlier work
primates = settings: cited from earlier work
[1] = cited from earlier work
[2] = system: prefrontal cortex functions; settings: subjects with the Val/Val genotype; cited from earlier work
patient with BD = assay: Illustrative case report: a case of BD; type: in vivo, human; settings: 400 mg/day, follow up
From the text: Married person, a hedge fund investment manager with history of BD who has had temporary partial response to antidepressants but mainly resulting in exacerbation symptoms of anxiety, relapse to a depression or cycling to mania. They were intolerant of atypical antipsychotics with potential antidepressant effect (Ziprasidone, Aripiprazole and Quetiapine) either as mono therapy or combined with Lithium or Lamotrigine. […] They reported oil Lithium their “up and down swings were better” but complained their depression was not resolved and they were not happy. They also complained of lack of motivation, trouble with concentration, getting easily overwhelmed with their job, inability to feel joy, overall lack of interest in everything, not knowing what to do with themself, gave up on all hobbies, feeling being all consumed, excessive day time napping, feeling bored especially when their time would be unstructured on week end, loss of their spontaneity and resorting to procrastination, They went to an exotic vacation in Caribbean with their spouse with the hope to bounce back. But as they reported they were not able to enjoy their vacation, complained feeling “being stuck at the low bottom and strongly believed they would never come out of it”. They had started to do Marijuana with the hope to improve their mood. They were preoccupied with getting a gun and shoots themself. […]

[3] = in vivo; cited from earlier work
[4] = administered in conjunction; cited from earlier work
[5] = system: patients with drug dependency; assay: Illustrative case reports: six cases of drug dependency; type: in vivo, human
[6] = system: patients with SCZ, BD, Major depression and drug dependency; assay: Clinical studies of entacapone in more than 100 patients, evaluated with the CGI scale; type: in vivo, human
Method: This new therapeutic application was determined in patients (Men/women) in single-drug and combination drug therapy. 100 patients were treated at a dose range of 3-10-mg/kg day (50 mg/day-800 mg/day) orally for period of 12 weeks and continued for as long as patients consented averaged 12 months or more.
The drug efficacy was evaluated using the CGI (Clinical Global Impression) scale. This is a simple tool that is clinically understandable, has proven to be a robust measure of efficacy in drug treatment trial and is highly sensitive to change of clinical status.

**Q.** With `Cc1ccc(C(=O)c2cc(O)c(O)c([N+](=O)[O-])c2)cc1` [Tolcapone] as the compound, how does the “extradimensional set shifting performance mediated by prefrontal cortex catecholamines” value (rats) read?
**A.** significantly improved

**Q.** What about the “extradimensional set shifting performance mediated by prefrontal cortex catecholamines” value (primates) of the same compound?
**A.** significantly improved

**Q.** What about the tolerability ([1]; human, in vivo) of the same compound?
**A.** well tolerated drug with no major side effects

**Q.** What about the hepatic failure ([1]; reported in Europe in the early years of use) of the same compound?
**A.** three cases of hepatic failure

**Q.** For `CC(N)Cc1ccccc1` (stereo not shown) [amphetamine], which “efficiency of prefrontal cortex functions in working memory tasks” value [2] is on record?
**A.** enhanced

**Q.** For `CCN(CC)C(=O)/C(C#N)=C/c1cc(O)c(O)c([N+](=O)[O-])c1` [entacapone], which “duration of maintained effect in BD” value (patient with BD) is on record?
**A.** 12 months

**Q.** And the “blood brain barrier penetration relative to tolcapone” value [3]?
**A.** half that of about tolcapone

**Q.** And the “bioavailability of dopaminergic agents such as L-DOPA” value [4]?
**A.** increases the bioavailability

**Q.** What about the “duration of abstinence, Case #2” value ([5]; cocaine and alcohol dependant, relapsed when entacapone stopped) of the same compound?
**A.** 10 months

**Q.** What about the “duration of sobriety, Case #3” value ([5]; increased to 400 then 600 mg/day) of the same compound?
**A.** 14 months

**Q.** What about the common side effects ([1]; human, in vivo) of the same compound?
**A.** gastrointestinal problems, including diarrhea, nausea and abdominal pains

**Q.** What about the “safety profile relative to tolcapone” value ([1]; human, in vivo) of the same compound?
**A.** much better safety profile

**Q.** And the “most frequent undesirable effects” value ([1]; related to increased effects of L-DOPA, beginning of treatment)?
**A.** involuntary movements (dyskinesias)

**Q.** What about the “serious events (physical, neurological or psychiatric adverse effects)” value ([6]; during the study, 50-800 mg per day) of the same compound?
**A.** no indication of serious events

**Q.** What about the “cases with improved negative and depressive symptoms (CGI scale)” value ([6]; entacapone (Comtan) 50-800 mg per day, more than 100 patients) of the same compound?
**A.** more than 60%

**Q.** And the “effect of discontinuation of treatment on clinical condition” value ([6]; in comparison to the pre-treatment status)?
**A.** did not cause any worsening of the clinical condition
